{"source": "paper PMC6585620", "about": "(Clinical Pharmacology and Therapeutics, 2018)", "key": {"CYP3A4 [1]": {"target": "T1, CYP3A4 (Homo sapiens, UniProt P08684)", "T1 sequence (P08684 whole entry)": "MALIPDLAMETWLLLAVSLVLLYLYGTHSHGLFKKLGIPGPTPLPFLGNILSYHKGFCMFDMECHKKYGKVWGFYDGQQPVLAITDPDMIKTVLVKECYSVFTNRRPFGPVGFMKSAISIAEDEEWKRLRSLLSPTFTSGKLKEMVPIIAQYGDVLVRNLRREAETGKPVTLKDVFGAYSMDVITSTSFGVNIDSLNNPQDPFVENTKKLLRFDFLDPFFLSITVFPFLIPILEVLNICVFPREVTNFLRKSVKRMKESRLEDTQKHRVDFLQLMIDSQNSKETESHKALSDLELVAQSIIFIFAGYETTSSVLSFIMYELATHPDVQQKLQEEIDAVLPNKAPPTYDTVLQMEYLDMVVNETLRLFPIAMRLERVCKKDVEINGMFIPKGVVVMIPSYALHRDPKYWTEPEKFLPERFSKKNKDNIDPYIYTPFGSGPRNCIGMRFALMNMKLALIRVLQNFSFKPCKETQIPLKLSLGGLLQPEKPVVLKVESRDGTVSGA", "experiment": "In vitro CYP3A4 reversible inhibition", "assay_type": "in vitro ADME"}, "CYP3A4 [2]": {"target": "T1, CYP3A4", "experiment": "In vitro CYP3A4 time-dependent inhibition", "assay_type": "in vitro ADME", "settings": "measured data"}, "CYP3A4 [3]": {"system": "CYP3A4", "experiment": "In vitro CYP3A4 induction", "assay_type": "in vitro ADME, human"}, "P‐glycoprotein (P‐gp) [4]": {"target": "T2, P‐glycoprotein (P‐gp) (Homo sapiens, UniProt P08183)", "T2 sequence (P08183 whole entry)": "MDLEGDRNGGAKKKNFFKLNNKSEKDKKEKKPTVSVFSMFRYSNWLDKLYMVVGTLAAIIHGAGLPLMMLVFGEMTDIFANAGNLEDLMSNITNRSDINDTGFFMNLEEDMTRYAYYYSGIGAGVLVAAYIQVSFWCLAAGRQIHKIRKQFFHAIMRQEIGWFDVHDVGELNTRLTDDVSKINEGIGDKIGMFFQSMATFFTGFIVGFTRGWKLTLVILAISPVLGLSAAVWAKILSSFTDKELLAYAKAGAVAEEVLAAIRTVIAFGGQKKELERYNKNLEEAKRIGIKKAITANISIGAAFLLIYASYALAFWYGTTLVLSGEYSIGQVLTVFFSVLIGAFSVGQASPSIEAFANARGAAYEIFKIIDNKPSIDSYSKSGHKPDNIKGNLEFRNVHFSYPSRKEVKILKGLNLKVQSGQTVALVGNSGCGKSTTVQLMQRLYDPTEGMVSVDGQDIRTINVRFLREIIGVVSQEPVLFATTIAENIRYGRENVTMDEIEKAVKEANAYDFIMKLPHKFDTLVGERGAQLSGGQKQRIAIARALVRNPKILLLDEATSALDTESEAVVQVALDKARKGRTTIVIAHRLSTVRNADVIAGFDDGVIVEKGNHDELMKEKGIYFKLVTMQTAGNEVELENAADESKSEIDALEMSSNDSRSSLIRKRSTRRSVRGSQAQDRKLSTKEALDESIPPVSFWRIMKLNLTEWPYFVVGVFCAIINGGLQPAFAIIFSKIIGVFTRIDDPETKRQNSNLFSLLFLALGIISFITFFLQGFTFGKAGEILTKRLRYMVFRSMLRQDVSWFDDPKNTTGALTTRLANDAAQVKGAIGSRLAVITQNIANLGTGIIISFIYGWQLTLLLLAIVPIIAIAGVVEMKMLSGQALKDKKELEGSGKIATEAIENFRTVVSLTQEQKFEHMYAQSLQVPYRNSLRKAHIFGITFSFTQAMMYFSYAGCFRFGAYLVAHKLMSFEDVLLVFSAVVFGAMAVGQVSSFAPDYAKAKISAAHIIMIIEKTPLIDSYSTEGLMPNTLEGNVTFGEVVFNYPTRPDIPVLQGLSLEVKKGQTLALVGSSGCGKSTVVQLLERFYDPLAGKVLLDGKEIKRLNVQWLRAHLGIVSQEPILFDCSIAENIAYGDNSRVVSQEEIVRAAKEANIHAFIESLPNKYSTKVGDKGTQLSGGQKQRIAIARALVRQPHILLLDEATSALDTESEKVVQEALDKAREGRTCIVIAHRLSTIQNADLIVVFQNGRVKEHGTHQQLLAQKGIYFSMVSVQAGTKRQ", "experiment": "In vitro P-gp inhibition", "assay_type": "in vitro ADME"}, "UGT1A1 [5]": {"target": "T3, UGT1A1 (Homo sapiens, UniProt P22309)", "T3 sequence (P22309 26-533)": "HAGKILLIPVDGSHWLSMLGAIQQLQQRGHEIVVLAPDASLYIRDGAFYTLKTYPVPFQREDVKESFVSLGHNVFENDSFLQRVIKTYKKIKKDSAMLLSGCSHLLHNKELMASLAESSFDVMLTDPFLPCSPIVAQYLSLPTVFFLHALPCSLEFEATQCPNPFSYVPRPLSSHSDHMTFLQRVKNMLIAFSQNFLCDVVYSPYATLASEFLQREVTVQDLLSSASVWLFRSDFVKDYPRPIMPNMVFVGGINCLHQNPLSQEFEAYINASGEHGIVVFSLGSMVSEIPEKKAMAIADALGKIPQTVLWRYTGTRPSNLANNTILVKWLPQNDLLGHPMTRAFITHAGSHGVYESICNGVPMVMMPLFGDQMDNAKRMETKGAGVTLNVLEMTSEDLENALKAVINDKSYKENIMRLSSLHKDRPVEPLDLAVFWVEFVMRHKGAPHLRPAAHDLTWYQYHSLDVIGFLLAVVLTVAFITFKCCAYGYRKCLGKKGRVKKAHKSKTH", "experiment": "In vitro UGT1A1 inhibition", "assay_type": "in vitro ADME", "settings": "UGT1A1 (Ki=IC50/2), measured data"}, "[6]": {"experiment": "Physicochemical properties", "settings": "PBPK input"}, "[7]": {"experiment": "Blood-to-plasma ratio and plasma unbound fraction", "assay_type": "in vitro ADME"}, "[8]": {"experiment": "Mass balance ADME study with [14C]-olaparib", "assay_type": "in vivo, human", "settings": "Figure S1"}, "[9]": {"experiment": "PKPD exposure-response analysis of SOLO2", "assay_type": "in vivo, human", "settings": "for a 50% increase in exposure to olaparib"}, "[10]": {"experiment": "PBPK model parameters estimated or predicted in Simcyp", "parameters": "species or system human", "settings": "for CYP3A CLint: retrograde approach"}, "[11]": {"settings": "observed, cited from earlier work"}, "[12]": {"settings": "cited from earlier work; for Increase in AUC vs normal renal function / Increase in Cmax vs normal renal function: single oral 300 mg tablet"}, "[13]": {"settings": "tablet 300 mg bid, cited from earlier work"}, "P‐glycoprotein (P‐gp) [14]": {"target": "T2, P‐glycoprotein (P‐gp)", "settings": "read-out: P‐gp inhibition IC50; in vitro; cited from earlier work"}, "UGT1A1 [15]": {"target": "T3, UGT1A1", "settings": "read-out: UGT1A1 inhibition IC50; in vitro; cited from earlier work"}, "[16]": {"settings": "capsule model, estimated based on clinical data"}, "[17]": {"settings": "capsule 400 mg single dose, arithmetic mean (min–max)"}, "[18]": {"settings": "tablet 300 mg bid multiple dose"}, "[19]": {"settings": "adults SOLO2 (observed), ref SOLO2 (NCT01874353)"}}, "note": "Read-outs that look alike come from different tables or passages of the source."}
{"smiles": "O=C(c1cc(Cc2n[nH]c(=O)c3ccccc23)ccc1F)N1CCN(C(=O)C2CC2)CC1", "note": "[Olaparib]", "values": [{"measurement": "Ki", "setting": "CYP3A4 [1]", "value": 59.5, "unit": "µM"}, {"measurement": "CYP3A4 TDI KI", "setting": "CYP3A4 [2]", "value": "72.2 (measured data) μM"}, {"measurement": "EC50", "setting": "CYP3A4 [3]; human", "value": 17.7, "unit": "µM"}, {"measurement": "CYP3A4 induction Emax", "setting": "CYP3A4 [3]; measured data", "value": "48.1 (measured data) fold"}, {"measurement": "Ki", "setting": "P‐glycoprotein (P‐gp) [4]", "value": 73.9, "unit": "µM"}, {"measurement": "Ki", "setting": "UGT1A1 [5]", "value": 48.4, "unit": "µM"}, {"measurement": "pKa", "setting": "[6]", "value": "Neutral"}, {"measurement": "Log P", "setting": "[6]; measured data", "value": "1.55 (measured data)"}, {"measurement": "fu,plasma", "setting": "[7]; fraction unbound in plasma, measured data", "value": "0.181 (measured data)"}, {"measurement": "fraction unbound", "setting": "[7]; human, plasma", "value": 0.181}, {"measurement": "Share of total clearance by oxidation via CYP3A4/5", "setting": "[8]", "value": 84, "unit": "%"}, {"measurement": "Share of total clearance by renal elimination", "setting": "[8]", "value": 16, "unit": "%"}, {"measurement": "Predicted drop in hemoglobin level", "setting": "[9]", "value": "~17.5", "unit": "%"}, {"measurement": "CLpo", "setting": "[10]; [16]", "value": "6.07 (estimated based on clinical data) L/h"}, {"measurement": "Peff,man", "setting": "[10]; [16]", "value": "0.000644 cm/s (estimated based on clinical data)"}, {"measurement": "CYP3A CLint", "setting": "[10]; capsule model", "value": "0.0412 (retrograde approach) µL/min/pmol of isoform"}, {"measurement": "CLpo", "setting": "[10]; tablet model, estimated based on clinical data", "value": "7.6 (estimated based on clinical data) L/h"}, {"measurement": "CYP3A CLint", "setting": "[10]; tablet model", "value": "0.057 (retrograde approach) µL/min/pmol of isoform"}, {"measurement": "AUCt (range)", "setting": "[11]; [17]", "value": "56.2 (21.9–299) h·µg/mL"}, {"measurement": "Cmax (range)", "setting": "[11]; [17]", "value": "4.44 (3–15) µg/mL"}, {"measurement": "AUCss (range)", "setting": "[11]; [18]", "value": "63.8 (25.5–189) h·µg/mL"}, {"measurement": "Cmax (range)", "setting": "[11]; [18]", "value": "9.71 (4.8–24.9) µg/mL"}, {"measurement": "Cmax (range)", "setting": "[11]; tablet 300 mg single dose, arithmetic mean (min–max)", "value": "7.41 (2.6–19.1) µg/mL"}, {"measurement": "Renal clearance", "setting": "[12]; based on clinical data, ref NCT01894256", "value": "1.48 (based on clinical data: NCT01894256) L/h"}, {"measurement": "Change in AUC and Cmax vs normal hepatic function", "setting": "[12]; mild and moderate hepatic impairment", "value": "< 15", "unit": "%"}, {"measurement": "Increase in AUC vs normal renal function", "setting": "[12]; mild renal impairment", "value": 24, "unit": "%"}, {"measurement": "Increase in Cmax vs normal renal function", "setting": "[12]; mild renal impairment", "value": 15, "unit": "%"}, {"measurement": "Increase in AUC vs normal renal function", "setting": "[12]; moderate renal impairment", "value": 44, "unit": "%"}, {"measurement": "Increase in Cmax vs normal renal function", "setting": "[12]; moderate renal impairment", "value": 26, "unit": "%"}, {"measurement": "Geometric mean AUC (95% CI)", "setting": "[13]; adults OlympiAD (observed), ref OlympiAD (NCT02000622)", "value": "41.2 (36.1‐47.0) h·µg/mL"}, {"measurement": "Geometric mean AUC (95% CI)", "setting": "[13]; [19]", "value": "40.7 (37.7–44.0) h·µg/mL"}, {"measurement": "Geometric mean Cmax (95% CI)", "setting": "[13]; [19]", "value": "7.12 (6.75–7.51) μg/mL"}, {"measurement": "IC50", "setting": "P‐glycoprotein (P‐gp) [14]", "value": 76, "unit": "µM"}, {"measurement": "IC50", "setting": "UGT1A1 [15]", "value": 96.7, "unit": "µM"}]}
